US11760751B2, “Benzo 2-azaspiro[4.4]nonane compound and use thereof” (HELIOEAST PHARMACEUTICAL CO., LTD., priority 2020, dated 2023)

Experiments:
[1] = target: T1, S1PR1 (Homo sapiens, UniProt P21453); experiment: In vitro S1PR1 agonistic activity, U2OS-EDG1 cells, LiveBLAzer-FRET B/G (CCF4-AM); assay type: cell-based
T1 construct: expressed in transfected cells
Experimental: Test Embodiment 2: In Vitro Evaluation of the Agonistic Activity of the Compounds of the Present Disclosure on S1PR1
Experimental objective: to detect the agonistic activity of compounds on S1PR1
I. Cell Treatment • 1. The cells U2OS-EDG1 (batch number: Invitrogen-K1520) were taken out from a liquid nitrogen tank and quickly thawed in a 37° C. water bath; • 2. the cell suspension was aspirated into a 15 mL centrifuge tube, resuspended in 5 mL of pre-warmed culture medium, and centrifuged at 1000 rpm for 5 min; • 3. the supernatant was discarded, 10 mL of culture medium was resuspended, transferred to a T75 culture flask, and cultured in a 37° C., 5% CO2 incubator.
II. Agonist Assay • 1. Compounds were diluted to working concentrations, and the compounds were 3-fold diluted by Echo 555 (manufacturer: Labcyte) to 10 concentrations, and then 200 nL of each concentration were transferred to cell plates, and centrifuged at 1000 rpm for 15 seconds; • 2. the culture medium in the culture flask was aspirated, and 4 mL of Dulbecco's Phosphate Buffered Saline (DPBS, supplier: Coring, catalog number: 21-031-CVR, batch number: 03318006) was added thereto to wash off the residual serum, and 2 mL of trypsin was added thereto, and incubated in a 37° C. incubator for 2 minutes to digest the cells, and then 10 mL of seed plate culture medium was added to resuspend the cells, and 0.6 mL of the cell suspension was taken out for counting; • 3. the cell density was adjusted with the seed plate culture medium to 1.88E+05 cells/mL, 40 μL was seeded per well (7500\well), and 40 μL of FreeStyle™ Expression culture medium was added around the cell plate, left to stand for 15 minutes at room temperature, and incubated at 37° C. with 5% CO2 for 20 hours.
III. Signal Detection • 1. LiveBLAzer™-FRET B/G Substrate (CCF4-AM) detection reagent was configured according to the instructions; • 2. 8 μL of 6×Substrate Mixture was added to each well of the cell plate, centrifuged at 1000 rpm for 15 seconds, attached with a membrane, incubated at 23° C. for 2 hours, and detected by Envision […].
IV. Data Analysis • 1. The original data was converted into % Effect by using the equation, and the value of EC50 could be obtained by curve fitting with four parameters [obtained in the “log(agonist) vs. response—Variable slope” mode in GraphPad Prism]; • 2. calculation formula: Ratio=(460 nm−blank)/(535 nm−blank) % Effect=(SampleRatio−Ave LCRatio)/(Ave HCRatio−Ave LCRatio)*100%

[2] = Pharmacokinetic evaluation in SD rats at different oral doses; assay type: in vivo, Sprague Dawley rats; conditions: SD rat, single oral administration 5 mg/kg, 5 mg/kg
Experimental: Test Embodiment 5: Pharmacokinetic Evaluation of Compounds in Rats at Different Doses
Experimental objective: to test the pharmacokinetics of the compounds in SD rats at different doses
Sprague Dawley rats (male, 200-300 g, 7-9 weeks old, Shanghai SLAC)
A standard protocol was used to test the pharmacokinetic characteristics of the compounds in SD rats after oral administration. In the experiment, the candidate compound was prepared into a clear solution, and administrated to rats by single oral administration. The vehicle for compound 1 was DMSO: 10% hydroxypropyl β-cyclodextrin aqueous solution=5:95. The vehicle for compounds 1A and 1B was 0.5% carboxymethyl cellulose +0.2% Tween 80. Whole blood samples of compounds 1, 1A and 1B within 48 hours were collected, centrifuged at 3000 g for 15 minutes, and the supernatant was separated to obtain plasma samples. 4-fold volume of acetonitrile solution containing internal standard was added thereto to precipitate protein. The mixture was centrifuged, and the supernatant was taken, and an equal volume of water was added thereto. Then the mixture was centrifuged and the supernatant was taken for injection. The blood drug concentration was quantitatively analyzed by LC-MS/MS analysis method, and pharmacokinetic parameters, such as peak concentration, peak time, half-life, area under the drug-time curve, were calculated.

T1 sequence (P21453 whole entry): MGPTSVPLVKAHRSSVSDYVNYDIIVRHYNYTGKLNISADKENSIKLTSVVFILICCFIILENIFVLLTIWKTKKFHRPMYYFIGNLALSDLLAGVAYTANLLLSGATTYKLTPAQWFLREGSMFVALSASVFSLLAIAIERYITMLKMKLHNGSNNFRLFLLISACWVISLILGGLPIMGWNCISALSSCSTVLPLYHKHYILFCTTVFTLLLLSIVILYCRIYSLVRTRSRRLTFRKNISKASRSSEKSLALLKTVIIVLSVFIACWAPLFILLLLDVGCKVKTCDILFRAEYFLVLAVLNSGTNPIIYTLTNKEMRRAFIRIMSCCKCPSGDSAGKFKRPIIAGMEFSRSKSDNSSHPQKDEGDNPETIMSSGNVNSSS

In the case of `CC(C)Oc1ccc(-c2nc(-c3cccc4c3CCC43CCN(CC4(C(=O)O)CC4)C3)no2)cc1C#N` (single isomer, unassigned) [Compound 22A], the EC50 ([1]; 20 hours incubation) is reported as 0.15 nM, the Emax ([1]; % Effect, read-out: Emax) is reported as 84.2% and the “Area under the drug-time curve AUC0-last PO” value [2] is reported as 26.434 µM·h. For the same compound, the “Half-life T1/2 (PO)” value [2] was 5.69 h, the “Peak time Tmax” value [2] was 2 h and the Cmax ([2]; read-out: Peak concentration Cmax) was 2500 nM.
